From patent US10519339B2, “Method for applying a coating to a polymeric substrate” (Sophion Bioscience A/S, priority 2012, dated 2019)

Test: Adsorption of drugs: recovery from supernatant by ESI-MS after incubation on glass, coated or uncoated polystyrene
Format: physicochemical
Conditions: 100 nM drug, FIG. 4, samples stored in glass vials up to 3 days
Protocol: Different concentrations of the drugs were dissolved in 2 ml H2O from a stock solution of 0.5 mM in 50% acetonitrile/50% H2O, and added to coated or uncoated polystyrene containers (2 mL solution added to each circular container of diameter 33 mm) as well as glass containers acting as reference material. Drug concentrations up to 250 nM were investigated. At different time points 250 μL of supernatant was sampled for analysis. […] The samples were analyzed by ESI-MS using 50% H2O/50% MeOH/0.1% acetic acid running buffer (0.1 mL/min).
The effectiveness of the low-binding Bz+NHS-PEG coatings were probed by extended incubation of coated and uncoated polystyrene in 100 nM solutions of drugs spanning a wide range of hydrophobicity. Glass surfaces were included as reference to the polystyrene. The supernanants of the incubation solutions were sampled at different time points, and the drug concentrations determined by electrospray ionization mass spectrometry (ESI-MS) after addition of an internal standard.
The recovery was calculated as the ratio of the drug concentration in the supernatant to the initially added drug concentration.

Structure (SMILES): CCCCc1oc2ccccc2c1C(=O)c1cc(I)c(OCCN(CC)CC)c(I)c1 [amiodarone]
- adsorption on glass surface: large adsorption even on the glass surface
